According to paper PMC9225965 (Bioorganic & Medicinal Chemistry Letters, 2022):

Tests used:
SARS-CoV-2 main protease = details: read-out: reported IC50; similar FRET-based assays; cited from earlier work
SARS-CoV-2 M^pro = SARS-CoV-2 M^pro (Severe acute respiratory syndrome coronavirus 2, UniProt P0DTD1); assay: biochemical; details: for inhibition at 50 µM: read-out: M^pro inhibition

Structure (SMILES) | IC50 (SARS-CoV-2 main protease) | inhibition at 50 µM (SARS-CoV-2 M^pro) | activity in the presence of Triton-X (aggregation control) (SARS-CoV-2 M^pro; IC50 experiment repeated with 0.02 % Triton-X in reaction buffer)
COCCn1c(C(=O)NCC(O)c2ccccc2)nc2ccccc2c1=O (stereo not shown) [Compound 10] |  | > 50% | 
O=C(CSc1nc2cc(Cl)ccc2n1Cc1ccccc1)N1CCNC1=O [Compound 8] |  | > 50% | not attenuated
